From the NIST ThermoML archive (doi:10.1016/j.jct.2012.03.015)
Numbers after ± are expanded uncertainties.

Assay: activity coefficient (dimensionless); of the first substance listed, at infinite dilution; xn = mol fraction of the nth substance listed
Settings: 101 kPa, Liquid, Chromatography, x1 = 0

| Compound | activity coefficient (318.15 K) | activity coefficient (328.15 K) | activity coefficient (338.15 K) | activity coefficient (348.15 K) | activity coefficient (358.15 K) | activity coefficient (368.15 K) |
| --- | --- | --- | --- | --- | --- | --- |
| CCCC(C)=O [pentan-2-one] + COCC[N+]1(C)CCCC1.O=S(=O)([N-]S(=O)(=O)C(F)(F)F)C(F)(F)F | 0.83 ± 0.05 | 0.84 ± 0.05 | 0.86 ± 0.06 | 0.87 ± 0.06 | 0.89 ± 0.06 | 0.9 ± 0.06 |
| CCC(=O)CC [pentan-3-one] + COCC[N+]1(C)CCCC1.O=S(=O)([N-]S(=O)(=O)C(F)(F)F)C(F)(F)F | 0.831 ± 0.054 | 0.851 ± 0.055 | 0.871 ± 0.056 | 0.887 ± 0.056 | 0.905 ± 0.057 | 0.919 ± 0.058 |
| CCCCC [pentane] + COCC[N+]1(C)CCCC1.O=S(=O)([N-]S(=O)(=O)C(F)(F)F)C(F)(F)F | 13.4 ± 0.9 | 12.7 ± 0.9 | 12.1 ± 0.8 | 11.5 ± 0.8 | 11 ± 0.8 | 10.5 ± 0.7 |
| CCCO [propan-1-ol] + COCC[N+]1(C)CCCC1.O=S(=O)([N-]S(=O)(=O)C(F)(F)F)C(F)(F)F | 2.2 ± 0.15 | 2.02 ± 0.14 | 1.86 ± 0.13 | 1.71 ± 0.11 | 1.58 ± 0.1 | 1.48 ± 0.1 |
| CC(C)O [propan-2-ol] + COCC[N+]1(C)CCCC1.O=S(=O)([N-]S(=O)(=O)C(F)(F)F)C(F)(F)F | 2 ± 0.14 | 1.83 ± 0.12 | 1.67 ± 0.11 | 1.54 ± 0.1 | 1.43 ± 0.09 | 1.34 ± 0.09 |
| c1ccncc1 [pyridine] + COCC[N+]1(C)CCCC1.O=S(=O)([N-]S(=O)(=O)C(F)(F)F)C(F)(F)F | 0.602 ± 0.042 | 0.61 ± 0.043 | 0.618 ± 0.043 | 0.625 ± 0.043 | 0.633 ± 0.044 | 0.639 ± 0.044 |
| C=Cc1ccccc1 [styrene] + COCC[N+]1(C)CCCC1.O=S(=O)([N-]S(=O)(=O)C(F)(F)F)C(F)(F)F | 1.29 ± 0.08 | 1.32 ± 0.09 | 1.33 ± 0.09 | 1.36 ± 0.09 | 1.37 ± 0.09 | 1.39 ± 0.09 |
| C1CCOC1 [tetrahydrofuran] + COCC[N+]1(C)CCCC1.O=S(=O)([N-]S(=O)(=O)C(F)(F)F)C(F)(F)F | 0.81 ± 0.05 | 0.83 ± 0.05 | 0.84 ± 0.05 | 0.86 ± 0.06 | 0.87 ± 0.06 | 0.88 ± 0.06 |
| c1ccsc1 [thiophene] + COCC[N+]1(C)CCCC1.O=S(=O)([N-]S(=O)(=O)C(F)(F)F)C(F)(F)F | 0.885 ± 0.056 | 0.897 ± 0.057 | 0.909 ± 0.058 | 0.918 ± 0.058 | 0.929 ± 0.059 | 0.938 ± 0.059 |
| Cc1ccccc1 [toluene] + COCC[N+]1(C)CCCC1.O=S(=O)([N-]S(=O)(=O)C(F)(F)F)C(F)(F)F | 1.48 ± 0.1 | 1.5 ± 0.1 | 1.51 ± 0.1 | 1.53 ± 0.1 | 1.55 ± 0.1 | 1.56 ± 0.1 |
| O [water] + COCC[N+]1(C)CCCC1.O=S(=O)([N-]S(=O)(=O)C(F)(F)F)C(F)(F)F | 3.15 ± 0.21 | 2.81 ± 0.19 | 2.51 ± 0.17 | 2.26 ± 0.15 | 2.05 ± 0.14 | 1.85 ± 0.12 |
